From ChEMBL document CHEMBL3407472, “Multi-parameter optimization of aza-follow-ups to BI 207524, a thumb pocket 1 HCV NS5B polymerase inhibitor. Part 2: Impact of lipophilicity on promiscuity and in vivo toxicity” (Bioorg Med Chem Lett, 2015)

What was measured:
[1] = test system: Hepatitis C virus; assay: Antiviral activity against Hepatitis C virus genotype 1b infected in human Huh cells assessed as inhibition of viral replication by RT-PCR-based replicon assay; assay type: functional, cell-based, Hepacivirus hominis
[2] = test system: Hepatitis C virus; assay: Antiviral activity against Hepatitis C virus genotype 1a infected in human Huh cells assessed as inhibition of viral replication by RT-PCR-based replicon assay; assay type: functional, cell-based, Hepacivirus hominis; conditions: subtype 1a
[3] = Half life in human liver microsomes at 2 uM; assay type: ADME
[4] = Permeability from apical to basolateral side of human Caco2 cells; assay type: ADME, cell-based; conditions: Caco-2, read-out: permeability
[5] = Lipophilicity, log D of the compound at pH 7.4; assay type: physicochemical; conditions: buffer
[6] = Half life in rat liver microsomes at 2 uM; assay type: ADME
[7] = Half life in cynomolgous monkey liver microsomes at 2 uM; assay type: ADME, Macaca fascicularis; conditions: cynomolgus monkey
[8] = Half life in dog liver microsomes at 2 uM; assay type: ADME, Canis lupus familiaris
[9] = Cmax in rat at 5 mg/kg, po and 2 mg/kg, iv; assay type: ADME, organism-based; conditions: in vivo
[10] = Cmax in cynomolgous monkey at 5 mg/kg, po and 2 mg/kg, iv; assay type: ADME, organism-based, Macaca fascicularis; conditions: cynomolgus monkey, in vivo
[11] = Cmax in dog at 5 mg/kg, po and 2 mg/kg, iv; assay type: ADME, organism-based, Canis lupus familiaris; conditions: in vivo
[12] = Half life in cynomolgous monkey at 5 mg/kg, po and 2 mg/kg, iv; assay type: ADME, organism-based, Macaca fascicularis; conditions: cynomolgus monkey, in vivo
[13] = Half life in rat at 5 mg/kg, po and 2 mg/kg, iv; assay type: ADME, organism-based; conditions: in vivo
[14] = AUC in rat at 5 mg/kg, po and 2 mg/kg, iv; assay type: ADME, organism-based; conditions: plasma
[15] = AUC in cynomolgous monkey at 5 mg/kg, po and 2 mg/kg, iv; assay type: ADME, organism-based, Macaca fascicularis; conditions: cynomolgus monkey, plasma
[16] = AUC in dog at 5 mg/kg, po and 2 mg/kg, iv; assay type: ADME, organism-based, Canis lupus familiaris; conditions: plasma
[17] = Half life in dog at 5 mg/kg, po and 2 mg/kg, iv; assay type: ADME, organism-based, Canis lupus familiaris; conditions: in vivo
[18] = Volume of distribution at steady state in rat at 5 mg/kg, po and 2 mg/kg, iv; assay type: ADME, organism-based; conditions: in vivo, read-out: Vdss
[19] = Volume of distribution at steady state in cynomolgous monkey at 5 mg/kg, po and 2 mg/kg, iv; assay type: ADME, organism-based, Macaca fascicularis; conditions: cynomolgus monkey, in vivo, read-out: Vdss
[20] = Volume of distribution at steady state in dog at 5 mg/kg, po and 2 mg/kg, iv; assay type: ADME, organism-based, Canis lupus familiaris; conditions: in vivo, read-out: Vdss
[21] = Clearance in rat at 5 mg/kg, po and 2 mg/kg, iv; assay type: ADME, organism-based; conditions: in vivo
[22] = Clearance in cynomolgous monkey at 5 mg/kg, po and 2 mg/kg, iv; assay type: ADME, organism-based, Macaca fascicularis; conditions: cynomolgus monkey, in vivo
[23] = Clearance in dog at 5 mg/kg, po and 2 mg/kg, iv; assay type: ADME, organism-based, Canis lupus familiaris; conditions: in vivo
[24] = Bioavailability in rat at 5 mg/kg, po and 2 mg/kg, iv; assay type: ADME, organism-based; conditions: in vivo
[25] = Bioavailability in cynomolgous monkey at 5 mg/kg, po and 2 mg/kg, iv; assay type: ADME, organism-based, Macaca fascicularis; conditions: cynomolgus monkey, in vivo
[26] = Bioavailability in dog at 5 mg/kg, po and 2 mg/kg, iv; assay type: ADME, organism-based, Canis lupus familiaris; conditions: in vivo
[27] = Ratio of drug uptake in liver to plasma of rat at 5 mg/kg, po and 2 mg/kg, iv after 6 to 8 hrs; assay type: ADME, organism-based
[28] = target: Voltage-gated inwardly rectifying potassium channel KCNH2 (Homo sapiens, UniProt Q12809); assay: Inhibition of human ERG channel
[29] = Induction of action potential duration in guinea pig papillary muscle cells at 30 uM; assay type: functional, Cavia porcellus

Voltage-gated inwardly rectifying potassium channel KCNH2, sequence (Q12809 whole entry): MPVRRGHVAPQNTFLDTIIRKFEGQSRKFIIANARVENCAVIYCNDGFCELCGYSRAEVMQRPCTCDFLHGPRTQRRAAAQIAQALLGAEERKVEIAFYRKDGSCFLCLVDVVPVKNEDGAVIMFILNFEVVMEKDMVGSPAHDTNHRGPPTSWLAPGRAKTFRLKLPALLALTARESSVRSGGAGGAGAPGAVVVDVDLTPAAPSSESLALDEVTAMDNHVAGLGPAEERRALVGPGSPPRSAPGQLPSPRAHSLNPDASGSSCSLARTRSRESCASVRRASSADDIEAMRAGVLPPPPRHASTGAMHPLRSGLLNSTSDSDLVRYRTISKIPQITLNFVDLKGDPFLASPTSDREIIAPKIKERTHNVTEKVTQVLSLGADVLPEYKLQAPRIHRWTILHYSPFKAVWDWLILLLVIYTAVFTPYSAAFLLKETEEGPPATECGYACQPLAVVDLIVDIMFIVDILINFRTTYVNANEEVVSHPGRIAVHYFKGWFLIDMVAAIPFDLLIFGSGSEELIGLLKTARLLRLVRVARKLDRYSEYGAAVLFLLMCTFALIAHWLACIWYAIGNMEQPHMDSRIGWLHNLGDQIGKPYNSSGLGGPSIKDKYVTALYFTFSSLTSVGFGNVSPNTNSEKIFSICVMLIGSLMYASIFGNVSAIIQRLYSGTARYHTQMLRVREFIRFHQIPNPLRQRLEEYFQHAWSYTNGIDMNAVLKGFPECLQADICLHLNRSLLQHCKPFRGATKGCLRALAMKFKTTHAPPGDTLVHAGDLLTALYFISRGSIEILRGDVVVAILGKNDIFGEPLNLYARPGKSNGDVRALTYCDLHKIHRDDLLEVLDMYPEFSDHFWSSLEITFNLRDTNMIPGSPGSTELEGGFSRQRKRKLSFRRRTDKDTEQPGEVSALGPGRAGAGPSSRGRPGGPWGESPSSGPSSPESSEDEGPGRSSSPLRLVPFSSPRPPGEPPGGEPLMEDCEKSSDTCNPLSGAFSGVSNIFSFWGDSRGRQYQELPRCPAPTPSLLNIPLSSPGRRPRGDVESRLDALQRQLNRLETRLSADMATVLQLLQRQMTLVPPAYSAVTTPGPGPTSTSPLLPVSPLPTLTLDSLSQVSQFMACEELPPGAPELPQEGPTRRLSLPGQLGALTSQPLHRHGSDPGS

Compound `CCOc1nc(NC(=O)C2(NC(=O)c3ccc4c(c3)c(C)c(-c3ccc(F)cn3)n4C3CCCCC3)CCC2)ccc1/C=C/C(=O)O` has an EC50 [1] of 9 nM, an EC50 [2] of 22 nM and a half-life at 2 µM [3] of 103 min. For the same compound, the Papp A→B [4] was 15 ×10⁻⁶ cm/s, the logD [5] was > 4.9 and the half-life at 2 µM [6] was 41 min. For the same compound, the half-life at 2 µM [7] was 13 min, the half-life at 2 µM [8] was 132 min and the Cmax [9] was 4.5 µM. The Cmax [10] was 4.4 µM, the Cmax [11] was 5.9 µM and the half-life [12] was 144 min. The half-life [13] was 102 min, the AUC [14] was 11 µM·h and the AUC [15] was 14 µM·h. For the same compound, the AUC [16] was 26 µM·h, the half-life [17] was 180 min and the Vd [18] was 0.4 L/kg. The Vd [19] was 0.34 L/kg, the Vd [20] was 0.34 L/kg and the clearance [21] was 4.2 mL/min/kg. The clearance [22] was 4.1 mL/min/kg, the clearance [23] was 1.9 mL/min/kg and the bioavailability [24] was 36%. The bioavailability [25] was 45%, the bioavailability [26] was 42% and the Kp [27] was 4. It also gave an IC50 [28] of 1400 nM and an Activity [29] of 20%.
